In patent publication US12616713B2, “Methods for enhancing vascular density” (priority 2016, dated 2026):

What was measured:
NAD^+ = assay: NAD+ measurements in tissues of NMN-treated mice; type: in vivo, mouse; details: 18-month old mice, NMN 400 mg/kg/day in drinking water, two months; liver and gastrocnemius
Text: SIRT1-iKO, SIRT1-Tg and SIRT1^STOP mice were described previously (Firestein et al., 2008, PLoS One 3, e2020; Price et al., 2012, Cell Metab 15, 675-690). Tie2Cre and Sirt1^flox/flox mice were purchased from Jackson Laboratory (Bar Harbor, ME). MCK-PGC-1α and MyogCre mice were gifts from Dr. Bruce Spiegelman (Dana Farber Cancer Center, MA) and Dr. Eric N. Olson (UT Southwestern, Dallas, TX), respectively. mT-STOP^flox/flox, Gfp mouse was generated in house by E.O.W., which consists of an allele driven by ubiquitous actin B promoter, which has loxP sites flanking membrane-targeted tandem dimer Tomato (mT) and transcriptional STOP cassette, followed by a GFP coding sequence. […] SIRT1-iKO mice were fed tamoxifen (360 mg/kg) diet for five weeks to elicit whole-body SIRT1 exon 4 excision as described previously (Price et al., 2012). […] Levels of NAD^+ and NADH levels were measured in EC and muscle homogenates using commercially available kit (NAD-NADH Glo, Promega) according to manufacturer's instructions. Alternatively, NAD^+ levels in muscle and liver were measured by assay in-house developed method (Uddin et al., 2016, Front Pharmacol 7, 258). […] The other aliquot was acidified with HCl, and then neutralized with NaOH on ice to quantify NAD^+. […] Total NADH and NAD^+ were quantified using a Bio-Rad Imark microplate reader.

[1] = test system: aortic rings from 18-month old mice; assay: Aortic ring assay (ex vivo angiogenesis); type: cell-based, mouse; details: 18-month old WT mice, VEGF 30 ng/mL, NMN 0.5 mM, 7 days, versus PBS
Protocol: Aortic ring assay was performed according to the published protocol (Baker et al., 2012, Nat Protoc 7, 89-104). Briefly, thoracic aortas from mice were excised and transferred to Opti-MEM media. All extraneous fat, tissue and branching vessels were removed with forceps and a scalpel under a dissection microscope. The aortas were cut into ˜0.5 mm wide rings and serum starved overnight by incubating in Opti-MEM at 37° C./5% CO2. Next day, each aortic ring was embedded in 50 μL collagen matrix in a 96-well plate and incubated at 37° C./5% CO2 for 1 h. After embedding, the vessel sprouting was stimulated by supplementing the rings with 150 μL of Opti-MEM culture containing FBS (2.5%), with or without VEGF (30 ng/mL), or FGF (30 ng/mL) and incubating at 37° C./5% CO2 for 7 days. NMN (500 μM) was added to the media wherever mentioned and replaced every 3 days. The resulting sprouts were stained with BS1 lectin-FITC (Sigma) and imaged using fluorescence microscope. The number and total area of sprouts originating from aortic rings were quantified by ImageJ software.

[2] = test system: MLECs from WT and ESKO mice; assay: Apoptosis of serum-starved MLECs (Annexin V/PI); type: cell-based, mouse; details: serum-starved overnight, SIRT1-dependent
Protocol: FIG. 38 is (A) a graph showing quantification of the relative cell number (n=12) of HUVECs incubated with PBS or NMN (0.5 mM) for 48 h in complete growth medium and cell number determined using flow cytometry. (B) a graph showing the number of apoptotic cells (Annexin V+/PI−) (n=12) when MLECs from WT and ESKO mice were serum-starved overnight, then assessed for apoptosis by Annexin V/PI staining and analyzed using flow cytometry. Data are expressed as mean±SEM. *p<0.05, **p<0.005, ***p<0.0005, ^δp<0.00005 by Student's t test (A), or two-way (B) ANOVA with Bonferroni's Multiple Comparisons Tests. (C) a schematic diagram of a model of how SIRT1 promotes sprouting angiogenesis. […]
HUVECs were treated with PBS (vehicle), NaHS (100 μM), NMN (500 μM) or NMN+NaHS for 6 h, followed by exposure to H2O2 (600 μM) for another 4 h. After treatments, the number of apoptotic cells was determined using Annexin V-FITC apoptosis detection kit (eBioscience) as per manufacturer's instructions. […] After mixing gently, the fluorescence intensity was detected with a flow cytometry (FACSCanto II Analyzer, BD Biosciences) at emission at 530 nm and 575 nm and excitation at 488 nm. Annexin-V and PI staining were detected with a flow cytometry (FACSCanto II Analyzer, BD Biosciences) at emission at 530 nm and 575 nm and excitation at 488 run.

Compound: NC(=O)c1ccc[n+]([C@@H]2O[C@H](COP(=O)([O-])O)[C@@H](O)[C@H]2O)c1 [NMN, nicotinamide mononucleotide]
- NAD^+ levels in tissues (NAD^+): raised NAD^+ levels
- number of VEGF-mediated outgrowths or sprouts per aortic ring [1]: doubled
- apoptosis in ECs (Annexin V+/PI-) [2]: reduced apoptosis
